{
  "source": "patent US11278561B2",
  "about": "“Combination treatment for hematological cancers” (Geron Corporation, priority 2016, dated 2022)",
  "test_system": "MOLM-13 AML disseminated model",
  "experiment": "MOLM-13 AML disseminated mouse model, survival",
  "format": "in vivo",
  "settings": "MOLM-13 implanted SCID-beige mice; imetelstat sodium or MM 30 mg/kg ip TIW x 4 weeks, ABT-199 100 mg/kg po qd x 4 weeks",
  "description": "An in vivo study in the MOLM-13 AML disseminated mouse model was conducted to assess efficacy and survival. Specifically, on day 0 of the study, MOLM-13 AML tumor cells were implanted into mice. […] The percent survival of the mice was assessed as a function of time (days post tumor cell implantation). The study lasted for a total of 108 days (77 days after stopping treatment).\nFifty female SCID-beige mice (6-week-old, Jackson Laboratory) were intravenously injected with 1 million MOLM-13 cells and randomly divided into five groups.\nMice were observed daily and body weights were measured twice a week. The survival of mice in each group was followed. The study was terminated on day 108, which was 77 days post last treatment. The increased life span (“ILS”) was evaluated for each group, and the % ILS versus the vehicle control was calculated as: % ILS=100×(T−C)/C where T is the median survival of the treatment group and C is the median survival of the control group.",
  "data": [
    {"smiles": "CC1(C)CCC(CN2CCN(c3ccc(C(=O)NS(=O)(=O)c4ccc(NCC5CCOCC5)c([N+](=O)[O-])c4)c(Oc4cnc5[nH]ccc5c4)c3)CC2)=C(c2ccc(Cl)cc2)C1", "note": "[ABT-199, 4-[4-[[2-(4-chlorophenyl)-4,4-dimethylcyclohexen-1-yl]methyl]piperazin-1-yl]-N-[3-nitro-4-(oxan-4-ylmethylamino)phenyl]sulfonyl-2-(1H-pyrrolo [2,3-b]pyridin-5-yloxy)benzamide]", "values": [
      {"measurement": "% ILS (increased life span as compared to vehicle control)", "result": 36.3, "unit": "%"},
      {"measurement": "Median Survival", "result": 30, "unit": "days"}
    ]}
  ]
}
